Measured values: ChEMBL document CHEMBL4507315 (2021)

Key:
[1] = target: Activin receptor type-1 (Homo sapiens) (UniProt Q04771); details: Compound concentration 100.0 nM
[2] = target: Aurora kinase C (Homo sapiens) (UniProt Q9UQB9); details: Compound concentration 100.0 nM
[3] = target: Calcium/calmodulin-dependent protein kinase type II subunit beta (Homo sapiens) (UniProt Q13554); details: Compound concentration 100.0 nM
[4] = target: Cyclin-dependent kinase 2 (Homo sapiens) (UniProt P24941); details: Compound concentration 100.0 nM
[5] = target: Cyclin-dependent kinase 9 (Homo sapiens) (UniProt P50750); details: Compound concentration 100.0 nM
[6] = target: Dual specificity protein kinase CLK2 (Homo sapiens) (UniProt P49760); details: Compound concentration 100.0 nM
[7] = target: Casein kinase II subunit alpha' (Homo sapiens) (UniProt P19784); details: Compound concentration 100.0 nM
[8] = target: Serine/threonine-protein kinase DCLK1 (Homo sapiens) (UniProt O15075); details: Compound concentration 100.0 nM
[9] = target: Dual specificity tyrosine-phosphorylation-regulated kinase 1B (Homo sapiens) (UniProt Q9Y463); details: Compound concentration 100.0 nM
[10] = tested on: Epidermal growth factor receptor (Homo sapiens), P00533 [UNDEFINED MUTATION]; details: Compound concentration 100.0 nM
[11] = tested on: Epidermal growth factor receptor (Homo sapiens), P00533 [T790M]; details: Compound concentration 100.0 nM
[12] = target: Serine/threonine-protein kinase/endoribonuclease IRE1 (Homo sapiens) (UniProt O75460); details: Compound concentration 100.0 nM
[13] = target: Inhibitor of nuclear factor kappa-B kinase subunit epsilon (Homo sapiens) (UniProt Q14164); details: Compound concentration 100.0 nM
[14] = target: Mitogen-activated protein kinase 8 (Homo sapiens) (UniProt P45983); details: Compound concentration 100.0 nM
[15] = target: Serine/threonine-protein kinase LATS1 (Homo sapiens) (UniProt O95835); details: Compound concentration 100.0 nM
[16] = target: Serine/threonine-protein kinase MARK1 (Homo sapiens) (UniProt Q9P0L2); details: Compound concentration 100.0 nM
[17] = target: Hepatocyte growth factor receptor (Homo sapiens) (UniProt P08581); details: Compound concentration 100.0 nM
[18] = target: Myosin light chain kinase (Homo sapiens) (UniProt Q32MK0); details: Compound concentration 100.0 nM
[19] = target: Serine/threonine-protein kinase MRCK beta (Homo sapiens) (UniProt Q9Y5S2); details: Compound concentration 100.0 nM
[20] = target: Serine/threonine-protein kinase 3 (Homo sapiens) (UniProt Q13188); details: Compound concentration 100.0 nM
Chain of Serine/threonine-protein kinase 3 (Homo sapiens) (Q13188 whole entry): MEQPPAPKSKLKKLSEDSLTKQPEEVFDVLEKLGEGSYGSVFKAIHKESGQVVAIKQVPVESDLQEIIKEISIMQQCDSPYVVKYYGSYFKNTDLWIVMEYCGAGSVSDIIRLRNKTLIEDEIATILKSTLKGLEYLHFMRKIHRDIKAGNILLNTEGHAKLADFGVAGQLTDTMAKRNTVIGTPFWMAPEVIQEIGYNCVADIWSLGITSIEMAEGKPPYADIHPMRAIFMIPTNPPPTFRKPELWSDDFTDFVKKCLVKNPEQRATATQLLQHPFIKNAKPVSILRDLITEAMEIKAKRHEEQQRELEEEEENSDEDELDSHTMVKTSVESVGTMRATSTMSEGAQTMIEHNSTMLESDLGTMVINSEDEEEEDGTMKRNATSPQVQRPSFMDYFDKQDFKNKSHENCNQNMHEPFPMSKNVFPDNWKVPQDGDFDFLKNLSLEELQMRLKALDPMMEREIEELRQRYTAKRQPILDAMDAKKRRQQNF

[21] = target: Myosin light chain kinase 2, skeletal/cardiac muscle (Homo sapiens) (UniProt Q9H1R3); details: Compound concentration 100.0 nM
[22] = target: Phosphorylase b kinase gamma catalytic chain, skeletal muscle/heart isoform (Homo sapiens) (UniProt Q16816); details: Compound concentration 100.0 nM
[23] = tested on: Phosphatidylinositol 4,5-bisphosphate 3-kinase catalytic subunit alpha isoform (Homo sapiens), P42336 [E545K]; details: Compound concentration 100.0 nM
Chain of Phosphatidylinositol 4,5-bisphosphate 3-kinase catalytic subunit alpha isoform (Homo sapiens), P42336 [E545K] (P42336 whole entry E545K, canonical isoform): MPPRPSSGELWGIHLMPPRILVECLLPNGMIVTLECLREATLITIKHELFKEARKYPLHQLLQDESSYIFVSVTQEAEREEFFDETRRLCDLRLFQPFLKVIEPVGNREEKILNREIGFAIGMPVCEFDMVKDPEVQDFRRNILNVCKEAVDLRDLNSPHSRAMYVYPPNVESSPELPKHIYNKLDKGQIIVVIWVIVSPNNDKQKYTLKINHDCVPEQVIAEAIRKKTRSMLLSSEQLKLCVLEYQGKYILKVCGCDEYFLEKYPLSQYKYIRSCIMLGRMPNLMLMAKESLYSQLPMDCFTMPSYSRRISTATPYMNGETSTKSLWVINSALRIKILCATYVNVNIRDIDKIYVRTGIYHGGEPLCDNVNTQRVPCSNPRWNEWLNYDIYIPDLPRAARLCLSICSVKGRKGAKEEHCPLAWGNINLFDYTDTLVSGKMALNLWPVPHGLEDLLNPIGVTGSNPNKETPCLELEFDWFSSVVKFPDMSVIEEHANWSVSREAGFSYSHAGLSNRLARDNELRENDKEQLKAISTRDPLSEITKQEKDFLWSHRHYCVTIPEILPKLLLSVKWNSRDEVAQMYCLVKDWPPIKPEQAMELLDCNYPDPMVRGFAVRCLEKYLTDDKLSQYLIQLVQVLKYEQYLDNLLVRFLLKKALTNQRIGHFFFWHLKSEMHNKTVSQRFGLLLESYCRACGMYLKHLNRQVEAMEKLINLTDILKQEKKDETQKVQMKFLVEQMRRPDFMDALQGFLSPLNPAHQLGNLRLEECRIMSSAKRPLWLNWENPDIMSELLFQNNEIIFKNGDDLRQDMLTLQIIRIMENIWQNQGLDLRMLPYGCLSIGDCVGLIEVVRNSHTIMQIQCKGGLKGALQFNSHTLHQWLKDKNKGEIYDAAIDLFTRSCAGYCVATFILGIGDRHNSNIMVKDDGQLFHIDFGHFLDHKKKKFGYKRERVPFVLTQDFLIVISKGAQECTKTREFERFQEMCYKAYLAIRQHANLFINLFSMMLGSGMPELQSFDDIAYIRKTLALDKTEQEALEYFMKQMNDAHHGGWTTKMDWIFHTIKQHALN

[24] = target: Phosphatidylinositol 4,5-bisphosphate 3-kinase catalytic subunit gamma isoform (Homo sapiens) (UniProt P48736); details: Compound concentration 100.0 nM
[25] = target: Serine/threonine-protein kinase N1 (Homo sapiens) (UniProt Q16512); details: Compound concentration 100.0 nM
[26] = target: Protein kinase C theta type (Homo sapiens) (UniProt Q04759); details: Compound concentration 100.0 nM
Chain of Protein kinase C theta type (Homo sapiens) (Q04759 whole entry, looked up): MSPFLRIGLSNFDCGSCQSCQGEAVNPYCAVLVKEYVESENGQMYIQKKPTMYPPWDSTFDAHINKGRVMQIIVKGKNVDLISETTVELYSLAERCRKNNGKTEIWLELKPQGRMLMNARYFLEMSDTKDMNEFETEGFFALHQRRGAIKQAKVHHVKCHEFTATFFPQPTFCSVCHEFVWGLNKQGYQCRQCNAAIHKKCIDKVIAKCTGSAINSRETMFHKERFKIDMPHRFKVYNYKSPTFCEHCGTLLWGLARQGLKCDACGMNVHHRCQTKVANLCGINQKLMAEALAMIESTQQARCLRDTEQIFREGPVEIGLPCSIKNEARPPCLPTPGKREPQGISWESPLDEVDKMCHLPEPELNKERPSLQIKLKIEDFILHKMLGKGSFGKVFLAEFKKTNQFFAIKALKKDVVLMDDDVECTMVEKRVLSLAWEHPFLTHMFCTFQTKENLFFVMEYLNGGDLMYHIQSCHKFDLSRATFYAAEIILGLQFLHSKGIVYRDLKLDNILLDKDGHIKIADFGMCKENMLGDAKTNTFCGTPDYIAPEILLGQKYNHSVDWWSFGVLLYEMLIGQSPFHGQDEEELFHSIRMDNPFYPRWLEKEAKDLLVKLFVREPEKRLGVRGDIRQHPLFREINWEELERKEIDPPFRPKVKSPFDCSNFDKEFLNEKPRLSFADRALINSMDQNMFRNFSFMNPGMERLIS

[27] = target: Serine/threonine-protein kinase PRP4 homolog (Homo sapiens) (UniProt Q13523); details: Compound concentration 100.0 nM
[28] = target: RAF proto-oncogene serine/threonine-protein kinase (Homo sapiens) (UniProt P04049); details: Compound concentration 100.0 nM
[29] = target: Ribosomal protein S6 kinase alpha-2 (Homo sapiens) (UniProt Q15349); details: Compound concentration 100.0 nM
[30] = target: Ribosomal protein S6 kinase beta-1 (Homo sapiens) (UniProt P23443); details: Compound concentration 100.0 nM
[31] = target: Serine/threonine-protein kinase SIK2 (Homo sapiens) (UniProt Q9H0K1); details: Compound concentration 100.0 nM
Chain of Serine/threonine-protein kinase SIK2 (Homo sapiens) (Q9H0K1 whole entry, looked up): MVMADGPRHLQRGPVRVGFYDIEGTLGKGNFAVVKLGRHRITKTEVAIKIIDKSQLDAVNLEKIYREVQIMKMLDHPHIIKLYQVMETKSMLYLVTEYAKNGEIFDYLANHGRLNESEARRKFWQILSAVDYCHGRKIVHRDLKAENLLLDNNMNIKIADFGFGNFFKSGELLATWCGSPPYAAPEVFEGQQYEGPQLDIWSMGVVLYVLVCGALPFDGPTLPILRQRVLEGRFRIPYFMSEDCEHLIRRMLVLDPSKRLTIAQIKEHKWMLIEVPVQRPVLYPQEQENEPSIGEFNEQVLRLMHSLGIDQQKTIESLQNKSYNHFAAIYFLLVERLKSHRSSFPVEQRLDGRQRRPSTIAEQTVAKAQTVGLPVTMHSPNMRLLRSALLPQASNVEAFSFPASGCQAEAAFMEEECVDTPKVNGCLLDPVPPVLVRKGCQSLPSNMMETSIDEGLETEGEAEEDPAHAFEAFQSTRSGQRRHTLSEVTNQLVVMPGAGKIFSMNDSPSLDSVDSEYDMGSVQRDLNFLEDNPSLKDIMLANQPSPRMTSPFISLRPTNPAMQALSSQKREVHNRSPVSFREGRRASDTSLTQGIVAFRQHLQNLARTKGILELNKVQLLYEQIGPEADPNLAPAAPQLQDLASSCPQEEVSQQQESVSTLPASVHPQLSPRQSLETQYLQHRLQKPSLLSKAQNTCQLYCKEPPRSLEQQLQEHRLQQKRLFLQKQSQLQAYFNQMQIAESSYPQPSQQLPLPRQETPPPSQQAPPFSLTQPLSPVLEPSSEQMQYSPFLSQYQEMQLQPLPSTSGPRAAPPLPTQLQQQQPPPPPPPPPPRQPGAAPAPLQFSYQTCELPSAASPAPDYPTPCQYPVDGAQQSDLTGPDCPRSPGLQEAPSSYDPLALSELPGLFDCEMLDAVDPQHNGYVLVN

[32] = target: Tyrosine-protein kinase Srms (Homo sapiens) (UniProt Q9H3Y6); details: Compound concentration 100.0 nM
Chain of Tyrosine-protein kinase Srms (Homo sapiens) (Q9H3Y6 whole entry): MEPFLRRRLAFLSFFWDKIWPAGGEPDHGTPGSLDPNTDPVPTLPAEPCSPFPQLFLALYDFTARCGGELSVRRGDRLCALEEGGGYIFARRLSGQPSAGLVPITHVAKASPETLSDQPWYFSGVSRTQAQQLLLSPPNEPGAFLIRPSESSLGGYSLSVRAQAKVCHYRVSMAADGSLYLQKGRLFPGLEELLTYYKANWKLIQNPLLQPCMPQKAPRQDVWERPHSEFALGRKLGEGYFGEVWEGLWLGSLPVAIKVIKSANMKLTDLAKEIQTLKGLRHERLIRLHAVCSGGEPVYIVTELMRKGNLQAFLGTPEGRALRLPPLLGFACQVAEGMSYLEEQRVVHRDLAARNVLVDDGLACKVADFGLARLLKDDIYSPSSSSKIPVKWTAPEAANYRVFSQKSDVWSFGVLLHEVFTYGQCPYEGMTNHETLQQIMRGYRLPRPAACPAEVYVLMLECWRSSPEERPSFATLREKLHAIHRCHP

[33] = target: SRSF protein kinase 2 (Homo sapiens) (UniProt P78362); details: Compound concentration 100.0 nM
[34] = target: Serine/threonine-protein kinase TAO3 (Homo sapiens) (UniProt Q9H2K8); details: Compound concentration 100.0 nM
[35] = target: Serine/threonine-protein kinase TBK1 (Homo sapiens) (UniProt Q9UHD2); details: Compound concentration 100.0 nM
[36] = target: Tyrosine-protein kinase receptor Tie-1 (Homo sapiens) (UniProt P35590); details: Compound concentration 100.0 nM
[37] = target: Serine/threonine-protein kinase tousled-like 2 (Homo sapiens) (UniProt Q86UE8); details: Compound concentration 100.0 nM
Chain of Serine/threonine-protein kinase tousled-like 2 (Homo sapiens) (Q86UE8 whole entry, looked up): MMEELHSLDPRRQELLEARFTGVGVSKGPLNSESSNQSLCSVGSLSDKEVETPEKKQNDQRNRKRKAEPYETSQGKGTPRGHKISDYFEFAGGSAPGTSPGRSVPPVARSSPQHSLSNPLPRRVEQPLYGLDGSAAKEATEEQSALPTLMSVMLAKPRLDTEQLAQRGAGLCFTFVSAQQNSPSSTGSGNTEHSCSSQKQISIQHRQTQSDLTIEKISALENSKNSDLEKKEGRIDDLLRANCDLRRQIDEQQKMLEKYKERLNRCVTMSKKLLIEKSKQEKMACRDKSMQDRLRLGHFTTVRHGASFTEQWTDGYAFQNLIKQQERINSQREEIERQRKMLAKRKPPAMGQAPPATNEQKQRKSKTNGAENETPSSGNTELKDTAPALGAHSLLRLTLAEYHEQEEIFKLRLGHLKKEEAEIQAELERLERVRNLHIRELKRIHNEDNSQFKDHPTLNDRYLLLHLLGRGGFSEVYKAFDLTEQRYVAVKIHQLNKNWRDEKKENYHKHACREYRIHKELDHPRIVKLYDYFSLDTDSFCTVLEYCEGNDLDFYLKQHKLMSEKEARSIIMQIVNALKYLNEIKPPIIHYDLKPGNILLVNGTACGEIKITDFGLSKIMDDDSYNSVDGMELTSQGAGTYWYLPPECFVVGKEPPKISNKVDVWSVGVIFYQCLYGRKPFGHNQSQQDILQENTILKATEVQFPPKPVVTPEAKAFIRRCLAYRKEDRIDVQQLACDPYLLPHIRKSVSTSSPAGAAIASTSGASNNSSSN

[38] = target: High affinity nerve growth factor receptor (Homo sapiens) (UniProt P04629); details: Compound concentration 100.0 nM
[39] = target: Non-receptor tyrosine-protein kinase TYK2 (Homo sapiens) (UniProt P29597); details: Compound concentration 100.0 nM
[40] = target: Serine/threonine-protein kinase 32A (Homo sapiens) (UniProt Q8WU08); details: Compound concentration 100.0 nM
Chain of Serine/threonine-protein kinase 32A (Homo sapiens) (Q8WU08 whole entry): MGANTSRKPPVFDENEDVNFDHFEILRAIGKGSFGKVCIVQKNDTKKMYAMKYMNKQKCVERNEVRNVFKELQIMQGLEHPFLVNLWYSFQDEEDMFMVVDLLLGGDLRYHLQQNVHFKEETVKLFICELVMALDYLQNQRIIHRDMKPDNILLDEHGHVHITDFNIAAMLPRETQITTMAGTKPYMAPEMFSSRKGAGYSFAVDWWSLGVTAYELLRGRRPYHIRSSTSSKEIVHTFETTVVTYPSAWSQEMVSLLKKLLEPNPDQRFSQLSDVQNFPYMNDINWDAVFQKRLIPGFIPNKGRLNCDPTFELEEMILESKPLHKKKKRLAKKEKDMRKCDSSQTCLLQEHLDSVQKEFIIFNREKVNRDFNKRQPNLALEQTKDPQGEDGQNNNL

[41] = target: Tyrosine-protein kinase ZAP-70 (Homo sapiens) (UniProt P43403); details: Compound concentration 100.0 nM
[42] = target: 5-hydroxytryptamine receptor 2C (Homo sapiens) (UniProt P28335); details: Compound concentration 10.0 uM
[43] = target: GABA-A receptor; anion channel (Rattus norvegicus) (UniProt O09028+P15431+P18506+P18508+P19969+P20236+P23574+P23576+P28471+P28473+P30191+P62813+P63079+P63138+Q91ZM7+Q9ES14); details: Compound concentration 10.0 uM

O=C(NCCCC1CCCCC1)c1ccc(CNC(=O)c2cnn(-c3ccccc3)c2C(F)(F)F)cc1 [SR-321]
inactive: residual activity [1] 100% | residual activity [2] 100% | residual activity [3] 96% | residual activity [4] 96% | residual activity [5] 100% | residual activity [6] 100% | residual activity [7] 88% | residual activity [8] 100% | residual activity [9] 100% | residual activity [10] 100% | residual activity [11] 97% | residual activity [12] 94% | residual activity [13] 78% | residual activity [14] 99% | residual activity [15] 100% | residual activity [16] 100% | residual activity [17] 100% | residual activity [18] 92% | residual activity [19] 100% | residual activity [20] 100% | residual activity [21] 100% | residual activity [22] 100% | residual activity [23] 68% | residual activity [24] 95% | residual activity [25] 100% | residual activity [26] 100% | residual activity [27] 100% | residual activity [28] 99% | residual activity [29] 96% | residual activity [30] 96% | residual activity [31] 100% | residual activity [32] 93% | residual activity [33] 100% | residual activity [34] 99% | residual activity [35] 100% | residual activity [36] 100% | residual activity [37] 100% | residual activity [38] 100% | residual activity [39] 100% | residual activity [40] 76% | residual activity [41] 100% | inhibition [42] 6.21% | inhibition [43] -4.39%

Nc1c(C(=O)NCc2ccc(C(=O)NCCCC3CCCCC3)cc2)cnn1-c1ccccc1 [SR-318]
inactive: residual activity [1] 100% | residual activity [2] 100% | residual activity [3] 100% | residual activity [4] 96% | residual activity [5] 100% | residual activity [6] 100% | residual activity [7] 100% | residual activity [8] 100% | residual activity [9] 100% | residual activity [10] 100% | residual activity [11] 100% | residual activity [12] 100% | residual activity [13] 100% | residual activity [14] 100% | residual activity [15] 100% | residual activity [16] 79% | residual activity [17] 95% | residual activity [18] 100% | residual activity [19] 100% | residual activity [20] 100% | residual activity [21] 100% | residual activity [22] 90% | residual activity [23] 91% | residual activity [24] 100% | residual activity [25] 96% | residual activity [26] 100% | residual activity [27] 100% | residual activity [28] 100% | residual activity [29] 90% | residual activity [30] 100% | residual activity [31] 100% | residual activity [32] 100% | residual activity [33] 100% | residual activity [34] 96% | residual activity [35] 96% | residual activity [36] 100% | residual activity [37] 100% | residual activity [38] 100% | residual activity [39] 88% | residual activity [40] 96% | residual activity [41] 100% | inhibition [42] 10% | inhibition [43] 21.7%
